Assay results: patent publication US10894948B2, “Resetting pluripotent stem cells” (CAMBRIDGE ENTERPRISE LIMITED, priority 2014, dated 2021)
“Also recorded” adds a separate entry of the source.

Legend:
H9 and Shef6 cells = assay: Resetting by transient transfection with NANOG and KLF2 plasmids; assay type: cell-based, human; settings: pilot experiments
Excerpt: For transient expression and resetting we first generated H9 and Shef6 cells with an EOS-GFP/puro^R reporter (Hotta et al., 2009) introduced in a piggyBac vector. We have observed that in the PB rather than lentiviral vector context this reporter is initially expressed heterogeneously in conventional PSC and progressively silenced, but is re-expressed during resetting. We used NANOG and KLF2 expression constructs driven by the CAG promoter harbouring a blasticidin resistance gene. One well of a 6-well plate was transfected as above with 3 μg of non-linearised NANOG and KLF2 plasmids. Two days later, medium was switched to N2B27 with PD173074 (PD17, 0.5 μM), PD03 (0.5 μM) and hLIF. At day 4, cells were retransfected and on day 8 medium was changed to t2iL+Gö. Puromycin selection (0.5 μg/ml) was applied from day 12 onwards for two passages. Single colonies were picked on passage 4 or 5. […]
We investigated the timespan for resetting by inducing NANOG/KLF2 expression with DOX for finite intervals then assaying colony formation in t2iL+Gö. […] These were indistinguishable in morphology from cultures in which transgenes […] or from reset cells generated previously with inducible transgenes. qRT-PCR and immunostaining confirmed sustained expression of ground state pluripotency factors (FIG. 7E, F). […]

reset cells [1] = assay: Expansion of reset cells in different CH concentrations; assay type: cell-based, human
Method: C. Expansion of reset cells in different CH concentrations. Cells were plated at 5×10^4 cells per well and cultured for 4 days in PD03 (1 μM) with LIF, and 0, 1, or 3 μM CH. Y axis indicates cell number (×10^4).
Moderating GSK3 inhibition improves self-renewal of rat ES cells (Chen et al., 2013a; Meek et al., 2013) and we have also observed that combination of Gö6983 with the GSK3 inhibitor CH is unfavourable for mouse ESC propagation (J. Wray and A S, unpublished). We therefore titrated CH. […] Henceforth cells were maintained in titrated 2i with LIF and Gö6983 (t2iL+Gö).

[2] = tested on: reset cells and conventional PSC; assay: Oxygen consumption rate (SeaHorse extracellular flux); assay type: cell-based, human; settings: injected during assay
Method: A. Oxygen consumption rate (OCR). Measurements obtained using a SeaHorse Extracellular Flux analyser.
Oxygen consumption was measured using an XF^e24 Analyzer (SeaHorse Bioscience) according to the manufacturer's protocol. In brief, SeaHorse plates were pre-treated by coating with laminin and 80,000 cells were seeded on each well the night before the experiment. Culture media were exchanged for XF Base Medium (SeaHorse bioscience) supplemented with 2 mM pyruvate and 20 mM glucose with an adjusted pH of 7.4 and cells incubated at 37° C. in atmospheric CO2 for one hour. Oligomycin (2 μM), FCCP ([…]), Antimycin (1 μM) and Rotenone (1 μM) were injected during assay (XF cell mito stress test kit, Seahorse Bioscience). Mitochondria were stained with Mito Tracker Green FM (final concentration 50 nM, Life Technologies) or Tetramethylrhodamine, ethyl ester (TMRE, final concentration 20 nM, Life Technologies) in the relevant medium for 10 minutes and analysed by confocal microscopy.

reset iH9-EOS cells = assay: Culture of reset cells in t2iL with Ro-31-8425 replacing Gö6983; assay type: cell-based, human; settings: 0.1 μM in t2iL, 25 days (7 passages)
Method: FIG. 41 Bright field and fluorescence images of reset iH9-EOS cells after culture for 25 days (7 passages) in […] with Ro-31-8425 (0.1 μM) replacing Gö6983.

[3] = tested on: Human ES cells Shef6 and H9, which carry the EOS reporter; assay: Resetting without transgenes, EOS-GFP reporter (FACS, colonies); assay type: cell-based
Method: PDL-HDACi comprises mTeSR™-E6 basal medium (Stem Cell Technologies) supplemented with 1 μM PD0325901, human LIF (10 ng/ml, prepared in house) and a
HDAC inhibitor such as valproic acid sodium salt (VPC, 0.5-1 mM, Sigma,) or sodium butyrate (SB, 0.5-1 mM, Sigma).
Optionally a Wnt pathway inhibitor such as XAV939 (2 μM) may be included, constituting PDXL.
Human ES cells Shef6 and H9, which carry the EOS reporter [Hotta], were plated at a density of 50,000 to 100,000 cells per well of a six well tissue culture dish in KSR/FGF medium supplemented with 10 μM ROCK inhibitor (Y-27632). The day after medium was replaced with resetting medium (PDL-HDACi or PDXL-HDACi) for the following three days. Thereafter the cells were maintained in naïve maintenance medium, T2ilGö-FROCKi (FIG. 30).
EOS reporter contains a GFPIresPuro cassette driven by LTR of early transposon and a trimer of mouse Oct4 distal enhancer. The EOS reporter in majority of conventional human ES cells is expressed at low to undetectable level by microscope. More than 80 percent of cells do show low to moderate GFP expression by flow cytometry analysis (FACS) (FIG. 31). The resetting medium induced vast cell death and differentiation three days after. The dome shaped GFP positive colonies appears around Day5 to Day7 and peaked after day10 to day 12 (FIG. 32, FIG. 33, FIG. 34). The colonies can then be passaged in bulk or picked singly using TrypLE™ express. Puromycin selection is applied for one or two passages to exclude differentiated cells if needed. The reset cells expressed elevated naïve state markers, TFCP2L1 and DPPA3 from Day7 during resetting (FIG. 35). Two pools, iS6-N and iS6-E, have been maintained over 15 passages and are karyotypically normal by G-band analysis. They form embryoid body readily in low adhesive 96 well plates and up-regulate differentiation markers (FIG. 36).

reset H9 cells = assay: Propagation of reset cells in 2iL upon DOX withdrawal; assay type: cell-based, human; settings: 5 μM added to 2iL upon DOX withdrawal
Method: B. PKC inhibitor Gö6983 maintains the reset state in the absence of transgene expression. Upon DOX withdrawal cells in 2iL degenerated. […] Note that intrinsic fluorescence of Gö produces a faint red background signal.
To induce resetting, transfected PSC were dissociated with trypsin and replated as single cells in the presence of ROCK inhibitor. Doxycycline (DOX, 1 μM) was added the next day and 24 h later medium was changed to N2B27 medium (Ndiff227, StemCells Inc., SCS-SF-NB-02) with 1 μM PD0325901 (PD03), human LIF (prepared in-house), DOX and either 3 μM CHIR99021 (2iL+DOX) or 1 μM CHIR99021 (t2iL+DOX). Medium was changed every day. Cells were split every five to seven days after dissociation to single cells with Accutase (Life Technologies) for 10 minutes. Around two weeks after DOX induction, cells were transferred to t2iL+5 μM PKC inhibitor Gö6983 (Sigma-Aldrich) (t2iL+Gö). Reset cells cultured in t2iL+Gö were also passaged every five to seven days as single cells. Cells transferred to t2iL+Gö proliferate slowly for the initial couple of passages after withdrawal of DOX. Cells were maintained on MEF feeders throughout.
These cultures expressed OCT4 (FIG. 8) and expanded continuously, although proliferation was reduced and morphology less consistent compared to DOX-maintained cells.

reset cells [4] = assay: Feeder-free culture of reset cells on Matrigel or Laminin 511-E8; assay type: cell-based, human; settings: Gö reduced to 2 μM, ROCKi added prior to passaging
Method: For feeder-free culture plates were coated overnight at 4° C. with either diluted BD Matrigel hES-qualified Matrix (1:30) or Laminin 511-E8 (iMatrix-511; Nippi) at […] (Nakagawa et al., 2014). Cells were dissociated in the presence of ROCKi and plated in t2iL with Gö reduced to 2 μM.
Based on observations with mouse ESC we realised that Gö concentration was critical without buffering by feeders. We therefore reduced Gö to 2 μM and also added ROCKi prior to passaging. […] On both substrates cells could be expanded, albeit more slowly on laminin, and ground state pluripotency factor expression was retained over several passages (FIG. 1L).

reset cells [5] = assay: Colony forming assay (alkaline phosphatase staining) in t2iL+Gö; assay type: cell-based, human; settings: transgene-free reset cells in t2iL+Gö plus inhibitor, without ROCKi
Method: E. Colony forming assay. Cells maintained in t2iL+Gö were seeded without ROCKi at 2000 cells/well in 12 well dishes in t2iL+Gö plus FGF receptor inhibitor PD17 or TGF-β/activin receptor inhibitor A83-01. Colonies were stained for alkaline phosphatase after 7 days.
G. Colony forming assays on transgene-free reset cells. Cells maintained in t2iL+Gö were seeded at 2000 cells/well in […] in t2iL+Gö plus FGF receptor inhibitor PD17 or TGF-b/activin receptor inhibitor A83-01 and without ROCKi. Colonies were stained for alkaline phosphatase after 7 days.
Reset H9 cells maintained in t2iL+Gö were seeded without ROCKi at 2000 cells/well in 12 well dishes in t2iL+Gö. FGF receptor inhibitor PD173074 or TGF-β/activin receptor inhibitor A83-01 were added. Colonies were stained for alkaline phosphatase after 7 days.
Colony forming assays were carried out on MEF feeder cells by plating 1000 cells per well in 24-well plates, 2000 cells for 12-well plates and 5000 cells for 6-well plates. ROCKi was used for conventional but not reset cells. Activin/TGF β receptor inhibitor A83-01 was used at 0.25 μM where indicated. Plates were fixed and stained for alkaline phosphatase (Sigma-Aldrich, cat. 86R-1KT). Plates were scanned using a CellCelector (Aviso) or cellSens Dimension (Olympus).

Cc1c[nH]c(-c2cnc(NCCNc3ccc(C#N)cn3)nc2-c2ccc(Cl)cc2Cl)n1 [CH]
effect on the resetting process (H9 and Shef6 cells): appeared inhibitory to the resetting process
growth rate and colony morphology (reset cells [1]; 1 μM CH, with PD03 (1 μM), LIF and Gö6983): restored growth rate while maintaining morphology
growth rate and colony morphology (reset cells [1]; complete absence of CH): colony morphology improved in the complete absence of CH, but growth rate was reduced

CC[C@H]1/C=C/C=C/C[C@@H](C)[C@H](O)[C@@](C)(O)C(=O)[C@@H](C)[C@H](O)[C@@H](C)C(=O)[C@@H](C)[C@H](O)[C@@H](C)/C=C/C(=O)O[C@@H]2[C@H](C)[C@H](CC1)O[C@]1(CC[C@H](C)[C@H](C[C@@H](C)O)O1)[C@H]2C [oligomycin]
oxygen consumption rate (OCR), reset cells versus conventional PSC [2]: difference was minimised

CCN(CC)CCCCNc1ncc2cc(-c3cc(OC)cc(OC)c3)c(NC(=O)NC(C)(C)C)nc2n1 [PD17]
effect on the resetting process (H9 and Shef6 cells): might favour resetting

Cn1cc(C2=C(c3c4n(c5ccccc35)CCC(CN)C4)C(=O)NC2=O)c2ccccc21 (stereo not shown) [Ro-31-8425]
use as alternative PKC inhibitor for culture of reset cells (reset iH9-EOS cells): can be used as an alternative to Gö6983

CCCC(=O)[O-].[Na+] [Sodium butyrate, sodium butyrate]
resetting induction (GFP expression by FACS) ([3]; 7 days after resetting): potent resetting inducer

CCCC(CCC)C(=O)[O-].[Na+] [VPC, valproic acid sodium salt]
resetting efficiency (GFP expression by FACS) ([3]; three days VPC treatment, 7 days after resetting, increase from around 1%): ~3%

Oc1nc(-c2ccc(C(F)(F)F)cc2)nc2c1CSCC2 [XAV939]
colony yield / resetting efficiency ([3]; 2 μM in transgene-free resetting medium (PDXL)): colony yield may be higher for some cell lines but colonies are also more heterogeneous; also recorded: could significantly increase resetting efficiency

N#CC(C#N)=NNc1ccc(OC(F)(F)F)cc1 [FCCP]
oxygen consumption rate (OCR), reset cells versus conventional PSC [2]: greater OCR increase in reset cells than conventional PSC

COc1ccc2c(c1)c(C1=C(c3c[nH]c4ccccc34)C(=O)NC1=O)cn2CCCN(C)C [Gö6983, 3-[1-[3-(dimethylamino)propyl]-5-methoxy-1H-indol-3-yl]-4-(1H-indol-3-yl)-1H-pyrrole-2,5-dione]
maintenance of the reset state in the absence of transgene expression (reset H9 cells): maintained cell proliferation and compact colony morphology; also recorded: allowed maintenance of compact refractile colonies without Venus expression
undifferentiated colony formation without feeders (reset cells [4]): could form undifferentiated colonies on Matrigel or laminin 511-E8

Cc1cccc(-c2nn(C(=S)Nc3ccccc3)cc2-c2ccnc3ccccc23)n1 [A83-01]
proliferation without differentiation (reset cells [5]): continued to proliferate without differentiation
